# Laboratory results reported in patent publication US20140135310A1, “SULPHONAMIDE DERIVATIVES OF ALICYCLIC AMINES FOR THE TREATMENT OF CENTRAL NERVOUS SYSTEM DISEASES” (Adamed Sp. z o.o., priority 2011, published 2014).
# Read-outs that look alike come from different tables or passages of the source.
# How the values were obtained:
# Assay type in all cases: cell-based
# [1] = biological target: 5-HT7 serotoninergic receptors (Homo sapiens, UniProt P34969); assay: Cellular functional assay, 5-HT7 serotoninergic receptors; details: for 5-HT7 ag [%]: agonist mode, percent of control specific agonist response; for 5-HT7 antag [%]: antagonist mode
# Protocol: (§1) The results are expressed as a percent of control specific agonist response ((measured specific response/control specific agonist response)×100) obtained in the presence of the test compounds.
# (§2) The EC50 values (concentration producing a half-maximal specific response) and IC50 values (concentration causing a half-maximal inhibition of the control specific agonist response) were determined by non-linear regression analysis of the concentration-response curves generated with mean replicate values using Hill equation curve fitting (Y=D+[(A−D)/(1+(C/C50)nH)], where Y=specific response, D=minimum specific response, A=maximum specific response, C=compound concentration, and C50=EC50 or IC50, and nH=slope factor). This analysis was performed using a software developed at Cerep (Hill software) and validated by comparison with data generated by the commercial software SigmaPlot® 4.0 for Windows® (© 1997 by SPSS Inc.).
# (§3) For the antagonists, the apparent dissociation constants (Kb) were calculated using the modified Cheng Prusoff equation (Kb=IC50/(1+(A/EC50A)), where A=concentration of reference agonist in the assay, and EC50A=EC50 value of the reference agonist).
# [2] = biological target: D2 dopaminergic receptors (Homo sapiens, UniProt P14416); assay: Cellular functional assay, D2 dopaminergic receptors; details: D2S (h), HEK-293 cells; for D2 ag [%]: agonism, percent of control specific agonist response (3 μM dopamine for control); for D2 antag [%]: antagonism, stimulus dopamine (30 nM)
# Protocol: as §1, §2, §3
# [3] = biological target: 5-HT2A serotoninergic receptors (Homo sapiens, UniProt P28223); assay: Cellular functional assay, 5-HT2A serotoninergic receptors
# Protocol: as §1
# as §2, with “factor).” for “factor). This analysis was performed using a software developed at Cerep (Hill software) and validated by comparison with data generated by the commercial software SigmaPlot® 4.0 for Windows® (© 1997 by SPSS Inc.).”
# as §3
# [4] = biological target: T1, 5-HT1A serotoninergic receptors (Homo sapiens, UniProt P08908); assay: Cellular functional assay, 5-HT1A serotoninergic receptors; details: for 5-HT1A ag [%]: agonist mode, percent of control specific agonist response; for 5-HT1A antag [%]: antagonist mode
# T1 sequence (P08908 1-422): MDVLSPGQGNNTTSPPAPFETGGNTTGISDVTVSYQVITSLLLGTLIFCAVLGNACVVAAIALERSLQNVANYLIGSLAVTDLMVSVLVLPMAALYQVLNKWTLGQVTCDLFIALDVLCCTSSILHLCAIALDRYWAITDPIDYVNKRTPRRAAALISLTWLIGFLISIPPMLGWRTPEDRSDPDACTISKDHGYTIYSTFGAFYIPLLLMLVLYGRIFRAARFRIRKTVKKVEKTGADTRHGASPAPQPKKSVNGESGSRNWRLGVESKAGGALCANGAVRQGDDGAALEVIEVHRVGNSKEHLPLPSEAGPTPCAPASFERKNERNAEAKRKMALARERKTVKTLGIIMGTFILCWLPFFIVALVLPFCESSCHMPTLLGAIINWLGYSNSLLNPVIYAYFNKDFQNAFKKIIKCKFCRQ
# Protocol: as §1, §2, §3
# [5] = biological target: D3 dopaminergic receptors (Homo sapiens, UniProt P35462); assay: Cellular functional assay, D3 dopaminergic receptors; details: D3 (h), CHO cells; for D3 ag [%]: agonism, percent of control specific agonist response (0.3 μM dopamine for control); for D3 antag [%]: antagonism, stimulus dopamine (10 nM)
# Protocol: as §1, §2, §3
# [6] = biological target: 5-HT6 serotoninergic receptors (Homo sapiens, UniProt P50406); assay: Cellular functional assay, 5-HT6 serotoninergic receptors; details: agonist mode; percent of control specific agonist response
# Protocol: as §1, §2, §3
# [7] = biological target: T2, D4 dopaminergic receptors (Homo sapiens, UniProt P21917); assay: Cellular functional assay, D4 dopaminergic receptors; details: D4.4 (h), CHO cells; for D4 ag [%]: agonism, percent of control specific agonist response (300 nM dopamine for control); for D4 antag [%]: antagonism, stimulus dopamine (100 nM)
# T2 sequence (P21917 1-419): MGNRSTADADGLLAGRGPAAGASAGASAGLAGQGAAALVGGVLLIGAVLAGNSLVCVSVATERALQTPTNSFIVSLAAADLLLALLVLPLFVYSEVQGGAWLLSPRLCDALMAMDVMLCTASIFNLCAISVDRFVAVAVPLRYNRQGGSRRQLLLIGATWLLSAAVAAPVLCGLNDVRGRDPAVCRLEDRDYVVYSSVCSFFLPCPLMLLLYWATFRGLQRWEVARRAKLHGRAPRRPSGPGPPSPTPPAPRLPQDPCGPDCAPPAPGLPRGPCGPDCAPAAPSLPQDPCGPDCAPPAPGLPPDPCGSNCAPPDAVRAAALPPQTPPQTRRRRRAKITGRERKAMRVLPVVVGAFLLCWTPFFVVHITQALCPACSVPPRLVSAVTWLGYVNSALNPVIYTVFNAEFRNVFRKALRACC
# Protocol: as §1, §2, §3
# [8] = biological target: T3, 5-HT2C serotoninergic receptors (Homo sapiens, UniProt P28335); assay: Cellular functional assay, 5-HT2C serotoninergic receptors; details: for 5-HT2C ag [%]: agonist mode, percent of control specific agonist response; for 5-HT2C antag [%]: antagonist mode
# T3 sequence (P28335 33-458): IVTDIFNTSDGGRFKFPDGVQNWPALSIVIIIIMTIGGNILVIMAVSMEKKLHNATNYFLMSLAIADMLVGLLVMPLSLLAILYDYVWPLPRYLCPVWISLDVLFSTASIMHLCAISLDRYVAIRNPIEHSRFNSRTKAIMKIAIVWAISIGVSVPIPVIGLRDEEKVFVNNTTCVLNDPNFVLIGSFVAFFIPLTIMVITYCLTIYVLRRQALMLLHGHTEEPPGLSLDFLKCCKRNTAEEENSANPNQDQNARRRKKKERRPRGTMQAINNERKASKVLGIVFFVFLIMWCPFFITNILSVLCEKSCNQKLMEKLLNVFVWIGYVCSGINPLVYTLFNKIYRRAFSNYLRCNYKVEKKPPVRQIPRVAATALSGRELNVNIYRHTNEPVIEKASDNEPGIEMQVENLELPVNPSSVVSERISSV
# Protocol: as §1, §2, §3
# [9] = agonist mode, percent of control specific agonist response
# Sequence of 5-HT2A serotoninergic receptors (P28223 whole entry): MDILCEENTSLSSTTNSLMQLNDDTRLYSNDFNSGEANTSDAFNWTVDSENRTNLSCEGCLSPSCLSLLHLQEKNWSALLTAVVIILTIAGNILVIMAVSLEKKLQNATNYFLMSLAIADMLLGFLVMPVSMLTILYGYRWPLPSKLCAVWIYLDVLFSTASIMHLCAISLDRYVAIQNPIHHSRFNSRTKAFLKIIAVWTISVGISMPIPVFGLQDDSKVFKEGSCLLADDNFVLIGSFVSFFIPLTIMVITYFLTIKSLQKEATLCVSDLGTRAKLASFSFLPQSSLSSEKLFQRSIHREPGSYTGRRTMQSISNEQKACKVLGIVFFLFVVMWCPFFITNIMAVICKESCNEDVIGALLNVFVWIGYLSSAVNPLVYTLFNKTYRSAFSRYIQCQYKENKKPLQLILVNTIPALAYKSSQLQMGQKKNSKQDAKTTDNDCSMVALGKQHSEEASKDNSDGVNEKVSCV
# Sequence of D3 dopaminergic receptors (P35462 whole entry): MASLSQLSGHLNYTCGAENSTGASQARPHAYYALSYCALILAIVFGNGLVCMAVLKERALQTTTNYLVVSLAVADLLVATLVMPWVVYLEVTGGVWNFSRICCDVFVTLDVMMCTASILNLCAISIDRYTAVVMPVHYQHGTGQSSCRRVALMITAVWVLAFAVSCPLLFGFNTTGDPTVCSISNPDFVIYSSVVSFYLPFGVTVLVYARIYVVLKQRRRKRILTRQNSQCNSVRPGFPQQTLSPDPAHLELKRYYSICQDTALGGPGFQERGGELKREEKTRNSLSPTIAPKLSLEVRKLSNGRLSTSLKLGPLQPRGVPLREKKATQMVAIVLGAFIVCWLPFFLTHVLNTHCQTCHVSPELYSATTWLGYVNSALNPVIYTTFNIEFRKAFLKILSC
# Sequence of D2 dopaminergic receptors (P14416 whole entry): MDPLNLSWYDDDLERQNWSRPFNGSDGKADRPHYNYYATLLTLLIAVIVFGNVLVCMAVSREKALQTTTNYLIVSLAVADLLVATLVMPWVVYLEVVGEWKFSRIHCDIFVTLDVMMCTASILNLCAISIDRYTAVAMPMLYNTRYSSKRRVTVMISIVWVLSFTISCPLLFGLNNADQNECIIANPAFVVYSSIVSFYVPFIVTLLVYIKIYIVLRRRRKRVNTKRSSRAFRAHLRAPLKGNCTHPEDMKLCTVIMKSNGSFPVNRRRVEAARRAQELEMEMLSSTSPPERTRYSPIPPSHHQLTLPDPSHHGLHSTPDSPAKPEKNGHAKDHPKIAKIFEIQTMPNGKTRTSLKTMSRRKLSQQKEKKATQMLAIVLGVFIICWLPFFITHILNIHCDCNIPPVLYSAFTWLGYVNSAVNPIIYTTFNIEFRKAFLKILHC
# Sequence of 5-HT6 serotoninergic receptors (P50406 whole entry): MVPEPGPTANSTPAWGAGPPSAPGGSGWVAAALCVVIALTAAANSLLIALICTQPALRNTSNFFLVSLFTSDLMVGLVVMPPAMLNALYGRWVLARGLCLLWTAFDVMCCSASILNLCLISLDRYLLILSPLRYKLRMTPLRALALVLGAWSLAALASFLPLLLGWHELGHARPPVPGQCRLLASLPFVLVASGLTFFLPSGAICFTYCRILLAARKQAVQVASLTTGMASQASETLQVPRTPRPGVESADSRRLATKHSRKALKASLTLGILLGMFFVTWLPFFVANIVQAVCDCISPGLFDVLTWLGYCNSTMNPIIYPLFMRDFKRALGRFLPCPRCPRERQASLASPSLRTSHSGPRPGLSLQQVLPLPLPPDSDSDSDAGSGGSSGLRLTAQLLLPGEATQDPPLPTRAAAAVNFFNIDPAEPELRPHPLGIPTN
# Sequence of 5-HT7 serotoninergic receptors (P34969 whole entry): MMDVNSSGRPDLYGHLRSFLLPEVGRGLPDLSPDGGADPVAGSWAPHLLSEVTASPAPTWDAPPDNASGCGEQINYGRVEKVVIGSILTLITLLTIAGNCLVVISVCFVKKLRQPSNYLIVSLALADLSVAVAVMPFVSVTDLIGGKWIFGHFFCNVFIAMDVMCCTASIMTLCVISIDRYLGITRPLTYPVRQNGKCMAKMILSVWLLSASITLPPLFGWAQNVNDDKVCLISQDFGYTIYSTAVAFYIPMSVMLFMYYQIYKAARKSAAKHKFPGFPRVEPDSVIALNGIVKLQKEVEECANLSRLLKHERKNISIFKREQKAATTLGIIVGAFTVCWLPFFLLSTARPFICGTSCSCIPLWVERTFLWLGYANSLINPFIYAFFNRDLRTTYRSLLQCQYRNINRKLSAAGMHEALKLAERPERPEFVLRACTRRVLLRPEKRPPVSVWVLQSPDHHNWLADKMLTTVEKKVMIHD
Compound,5-HT7 ag [%] [1],5-HT7 antag [%] [1],D2 ag [%] [2],D2 antag [%] [2],"5-HT2A ag [%] [3, 9]",5-HT2A antag [%] ([3]; antagonist mode),5-HT1A ag [%] [4],5-HT1A antag [%] [4],5-HT2A ag [%] [3],D3 ag [%] [5],D3 antag [%] [5],5-HT6 ag [%] [6],D4 ag [%] [7],D4 antag [%] [7],5-HT2C ag [%] [8],5-HT2C antag [%] [8],5-HT2A antag [%] [3]
"N-[[1-[2-[(2,2-Dimethyl-3H-benzofuran-7-yl)oxy]ethyl]azetidin-3-yl]methyl]-3-hydroxy-benzenesulphonamide [Compound 111]",24%,55%,36%,89%,5%,58%,48%,89%,–,–,–,–,–,–,–,–,–
"O=S(=O)(NC1CCN(CCCc2c[nH]c3ccc(F)cc23)C1)c1ccc2ccccc2c1 (stereo not drawn) [Compound 80, N-[1-[3-(5-Fluoro-1H-indol-3-yl)propyl]pyrrolidin-3-yl]naphthalene-2-sulphonamide]",3%,–,33%,78%,–,–,42%,–,34%,91%,−5%,9%,6%,80%,–,–,–
"O=S(=O)(NCC1CN(CCOc2cccc3c2OCCO3)C1)c1ccc(Cl)c(Cl)c1 [Compound 183, 3,4-Dichloro-N-[[1-[2-(2,3-dihydro-1,4-benzodioxin-5-yloxy)ethyl]azetidin-3-yl]methyl]benzenesulphonamide]",2%,–,8%,53%,–,–,71%,–,1%,–,–,–,–,–,50%,12%,–
"COc1ccc2cc(S(=O)(=O)N[C@@H]3CCN(CCCc4noc5cc(F)ccc45)C3)ccc2c1 [Compound 230, N-[(3R)-1-[3-(6-Fluoro-1,2-benzoxazol-3-yl)propyl]pyrrolidin-3-yl]-6-methoxy-naphthalene-2-sulphonamide]",–,–,3%,94%,−2%,–,–,–,–,0%,89%,−1%,–,–,−2%,–,–
"O=S(=O)(NC1CN(CCOc2cccc3[nH]ccc23)C1)c1ccc2ccccc2c1 [Compound 50, N-[1-[2-(1H-Indol-4-yloxy)ethyl]azetidin-3-yl]naphthalene-2-sulphonamide]",21%,–,56%,92%,–,–,48%,–,−2%,85%,0%,–,62%,32%,–,–,–
"O=S(=O)(NC1CN(CCOc2cccc3c2OCCO3)C1)c1ccc(Cl)cc1 [Compound 92, 4-Chloro-N-[1-[2-(2,3-dihydro-1,4-benzodioxan-8-yloxy)ethyl]azetidin-3-yl]benzene-sulphonamide]",18%,69%,–,–,–,–,47%,89%,–,–,–,–,–,–,–,–,–
"Cc1c(S(=O)(=O)N[C@H]2CCN(CCCc3noc4cc(F)ccc34)C2)sc2ccc(F)cc12 [Compound 203, 5-Fluoro-N-[(3S)-1-[3-(6-fluoro-1,2-benzoxazol-3-yl)propyl]pyrrolidin-3-yl]-3-methyl-benzothiophene-2-sulphonamide]",0%,–,0%,80%,−1%,–,–,–,–,11%,65%,−2%,–,–,1%,–,–
"Cc1cccc(S(=O)(=O)NC2CCN(CCCc3c[nH]c4ccc(F)cc34)C2)c1 (stereo not drawn) [Compound 78, N-[1-[3-(5-Fluoro-1H-indol-3-yl)propyl]pyrrolidin-3-yl]-3-methyl-benzenesulphonamide]",–,–,–,–,–,–,54%,–,51%,89%,−10%,54%,–,–,–,–,−1%
"O=S(=O)(NC1CCN(CCOc2cccc3[nH]ccc23)CC1)c1ccccc1 [Compound 55, N-[1-[2-(1H-Indol-4-yloxy)ethyl]-4-piperidine]benzenesulphonamide]",5%,48%,–,–,−1%,–,72%,18%,–,82%,−33%,–,–,–,–,–,–
"O=S(=O)(NC1CN(CCOc2cccc3[nH]ccc23)C1)c1cccc2ccccc12 [Compound 49, N-[1-[2-(1H-Indol-4-yloxy)ethyl]azetidin-3-yl]naphthalene-1-sulphonamide]",26%,–,57%,97%,–,–,39%,–,–,75%,12%,–,–,–,–,–,–
"Cc1ccc2sc(S(=O)(=O)N[C@@H]3CCN(CCCc4noc5cc(F)ccc45)C3)cc2c1 [Compound 228, N-[(3R)-1-[3-(6-Fluoro-1,2-benzoxazol-3-yl)propyl]pyrrolidin-3-yl]-5-methyl-benzothiophene-2-sulphonamide]",0%,–,−1%,94%,1%,–,–,–,–,−15%,98%,−2%,–,–,0%,–,–
"CC(C)(C)c1ccc(S(=O)(=O)NCC2CN(CCOc3cccc4c3OCCO4)C2)cc1 [Compound 181, 4-tert-Butyl-N-[[1-[2-(2,3-dihydro-1,4-benzodioxin-5-yloxy)ethyl]azetidin-3-yl]methyl]benzenesulphonamide]",0%,–,–,–,–,–,66%,–,–,–,–,–,–,–,46%,6%,–
"O=S(=O)(NC1CCN(CCOc2nsc3ccccc23)C1)c1ccc2ccccc2c1 (stereo not drawn) [Compound 39, N-[1-[2-(1,2-Benzothiazol-3-yloxy)ethyl]pyrrolidin-3-yl]naphthalene-2-sulphonamide]",1%,–,–,–,–,–,34%,–,3%,66%,16%,−1%,–,–,–,–,–
